Data published in US9174997B2, “4-(4-cyano-2-thioaryl)dihydropyrimidinones and use thereof” (Bayer Intellectual Property GmbH, priority 2007, dated 2015).

Tests used:
[1] = test system: rat hepatocytes; assay: Hepatocyte assay to determine the metabolic stability; assay type: in vitro ADME; conditions: after incubation with rat hepatocytes
Description: B-6. Hepatocyte Assay to Determine the Metabolic Stability
The metabolic stability of test compounds in the presence of hepatocytes is determined by incubating the compounds with low concentrations (preferably below or around 1 μM) and with low cell counts (preferably 1*10^6 cells/ml) in order to ensure as far as possible linear kinetic conditions in the experiment. Seven samples of the incubation solution are taken in a fixed time pattern for the […] analysis in order to determine the half-life (i.e. the degradation) of the compound in each case. Various clearance parameters (CL) and Fmax values are calculated from this half-life (see below).
The Cl and Fmax values represent a measure of the phase 1 and phase 2 metabolism of the compounds in the hepatocytes. In order to minimize the influence of the organic solvent on the enzymes in the incubation mixtures, this concentration is generally limited to 1% (acetonitrile) or 0.1% (DMSO).
A cell count for hepatocytes in the liver of 1.1*10^8 cells/g of liver is used for calculation for all species and breeds.
The calculated parameters and their meaning are:
Representative values for the compounds according to the invention from this assay after incubation of the compounds with rat hepatocytes are shown in Table B below: […]

[2] = target: human neutrophil elastase (HNE) (Homo sapiens (Human), UniProt P08246); assay: In vitro HNE inhibition assay; assay type: biochemical; conditions: HNE concentration of 80 pM; substrate MeOSuc-Ala-Ala-Pro-Val-AMC; 37° C. for 2 hours
Description: B-1. In Vitro HNE Inhibition Assay
The potency of the compounds of the invention is ascertained in an in vitro inhibition assay. The HNE-mediated amidolytic cleavage of a suitable peptide substrate leads in this connection to an increase in the fluorescent light. The signal intensity of the fluorescent light is directly proportional to the enzyme activity.
Enzyme ([…]; from Serva, Heidelberg) and substrate (20 μM MeOSuc-Ala-Ala-Pro-Val-AMC; from Bachem, Weil am Rhein) are incubated in an assay volume of in total 50 μl of assay buffer (0.1 M HEPES pH 7.4, 0.5 M NaCl, 0.1% w/v BSA, 1% v/v DMSO) in a 384-well microtiter plate in the presence and absence of the test substance at 37° C. for 2 hours. […] The IC50 values are determined by plotting the intensity of the fluorescent light against the active substance concentration.

Chain of human neutrophil elastase (HNE) (P08246 30-267): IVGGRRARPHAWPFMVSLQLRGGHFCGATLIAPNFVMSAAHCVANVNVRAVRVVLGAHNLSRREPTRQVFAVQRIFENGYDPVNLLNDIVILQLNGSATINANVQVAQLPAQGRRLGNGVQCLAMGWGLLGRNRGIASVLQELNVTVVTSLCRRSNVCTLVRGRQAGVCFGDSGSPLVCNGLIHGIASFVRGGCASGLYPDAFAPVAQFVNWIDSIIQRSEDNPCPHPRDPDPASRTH

| CLblood, calculated blood clearance (well stirred model) [1] | Fmax, maximum possible bioavailability after oral administration (well-stirred) [1] | IC50 [2] | Structure (SMILES) |
| --- | --- | --- | --- |
| 0.9 L/h/kg | 78% | < 0.3 nM | CCS(=O)(=O)c1cc(C#N)ccc1[C@@H]1C(C#N)=C(C)N(c2cccc(C(F)(F)F)c2)C(=O)N1C [Example 128, (4S)-4-[4-Cyano-2-(ethylsulfonyl)phenyl]-3,6-dimethyl-2-oxo-1-[3-(trifluoromethyl)phenyl]-1,2,3,4-tetrahydropyrimidine-5-carbonitrile] |
| 1.7 L/h/kg | 59% | < 0.3 nM | CC1=C(C#N)[C@@H](c2ccc(C#N)cc2S(C)(=O)=O)N(C(=O)NN(CCO)CCO)C(=O)N1c1cccc(C(F)(F)F)c1 [Example 12, (6S)-5-Cyano-6-[4-cyano-2-(methylsulfonyl)phenyl]-N′,N′-bis(2-hydroxyethyl)-4-methyl-2-oxo-3-[3-(trifluoromethyl)phenyl]-3,6-dihydropyrimidine-1(2H)-carbohydrazide] |
| 1.3 L/h/kg | 69% | 0.3 nM | [C-]#[N+]C1=C(C)N(c2cccc(C(F)(F)F)c2)C(=O)N[C@@H]1c1ccc(C#N)cc1[S@+](C)[O-] (single isomer, unassigned; diastereomer 1) [Example 43 (Diastereomer 1)] |
| 0.4 L/h/kg | 91% | < 0.3 nM | CC1=C(C#N)[C@@H](c2ccc(C#N)cc2S(C)(=O)=O)N(CC#N)C(=O)N1c1cccc(C(F)(F)F)c1 [Example 116, (4S)-3-(Cyanomethyl)-4-[4-cyano-2-(methylsulfonyl)phenyl]-6-methyl-2-oxo-1-[3-(trifluoromethyl)phenyl]-1,2,3,4-tetrahydropyrimidine-5-carbonitrile] |
| – | – | < 0.3 nM | CC1=C(C#N)[C@@H](c2ccc(C#N)cc2S(C)(=O)=O)N(C(=O)N2CCC[C@@H](N)C2)C(=O)N1c1cccc(C(F)(F)F)c1 [Example 55, (4S)-3-[(3R)-3-Aminopiperidin-1-yl]carbonyl-4-[4-cyano-2-(methylsulfonyl)phenyl]-6-methyl-2-oxo-1-[3-(trifluoromethyl)phenyl]-1,2,3,4-tetrahydropyrimidine-5-carbonitrile] |
| – | – | < 0.3 nM | CC1=C(C#N)[C@@H](c2ccc(C#N)cc2S(C)(=O)=O)N(S(=O)(=O)c2ccccc2C#N)C(=O)N1c1cccc(C(F)(F)F)c1 [Example 103] |
| – | – | 10 nM | CC(=O)C1=C(C)N(c2cccc(C(F)(F)F)c2)C(=O)N[C@@H]1c1ccc(C#N)cc1S(C)(=O)=O [Example 2, 4-{(4S)-5-Acetyl-6-methyl-2-oxo-1-[3-(trifluoromethyl)phenyl]-1,2,3,4-tetrahydropyrimidin-4-yl}-3-(methylsulfonyl)benzonitrile] |
| – | – | < 0.3 nM | CC1=C(C#N)[C@@H](c2ccc(C#N)cc2S(C)(=O)=O)N(C(=O)NCCOCCO)C(=O)N1c1cccc(C(F)(F)F)c1 [Example 14, (6S)-5-Cyano-6-[4-cyano-2-(methylsulfonyl)phenyl]-N-[2-(2-hydroxyethoxy)ethyl]-4-methyl-2-oxo-3-[3-(trifluoromethyl)phenyl]-3,6-dihydropyrimidine-1(2H)-carboxamide] |
| – | – | 0.9 nM | CC1=C(C#N)[C@@H](c2ccc(C#N)cc2S(C)(=O)=O)N(C(=O)N2CCN(c3ccccn3)CC2)C(=O)N1c1cccc(C(F)(F)F)c1 [Example 69] |
| – | – | < 0.3 nM | CSc1cc(C#N)ccc1[C@H]1NC(=O)N(c2cccc(C(F)(F)F)c2)C(C)=C1C#N [Example 41, (4S)-4-[4-Cyano-2-(methylsulfanyl)phenyl]-6-methyl-2-oxo-1-[3-(trifluoromethyl)phenyl]-1,2,3,4-tetrahydropyrimidine-5-carbonitrile] |
| – | – | < 0.3 nM | CC1=C(C#N)[C@@H](c2ccc(C#N)cc2S(C)(=O)=O)N(C(=O)N(CC(C)O)CC(C)O)C(=O)N1c1cccc(C(F)(F)F)c1 (stereo partly shown) [Example 80] |
